In US6756390B2, “Organic acid salt of amlodipine” (CJ Corp., priority 2002, dated 2004):

Columns and labels:
Type in all cases: physicochemical
[1] = Chemical stability in solid state, accelerated test at 60° C.
[2] = Solubility in various solvents at 37° C.; details: aqueous buffer, ionic strength 0.2, 37° C., based on the weight of amlodipine
[3] = Light stability, 4 weeks at 25° C. with exposure to daylight, HPLC
From the text: A measurement was made of the contents of the salts with resort to HPLC under the same conditions as in the chemical stability test.

[4] = Chemical stability in aqueous state, 25° C., 4 weeks in the dark, HPLC; details: distilled water
Description: The resulting aqueous solutions were stored at 25° C. for 4 weeks in the dark, after which a measurement was made of the contents of the salts with resort to HPLC under the same conditions as in the solid state.

SMILES | Content, storage period 1 week ([1]; 1 week) [%] | Content, storage period 2 weeks ([1]; 2 weeks) [%] | Content, storage period 4 weeks ([1]; 4 weeks) [%] | Content, storage period initial ([1]; initial) [%] | solubility ([2]; pH 3 buffer) [µg/mL] | solubility ([2]; pH 4 buffer) [µg/mL] | solubility ([2]; pH 6 buffer) [µg/mL] | solubility ([2]; pH 7 buffer) [µg/mL] | solubility ([2]; pH 8 buffer) [µg/mL] | Color change on light exposure ([3]; 4 weeks, 25° C., daylight) | Content (HPLC), Stored 4 weeks, 25° C. daylight ([3]; 4 weeks, 25° C., daylight) [%] | Content (HPLC), Initial [3] [%] | Degraded impurity / content change in aqueous solution [4]
CCOC(=O)C1=C(COCCN)NC(C)=C(C(=O)OC)C1c1ccccc1Cl (stereo not drawn) [Besylate, Amlodipine Besylate] | 99.6 | 99.4 | 99.2 | 99.6 | 3250 | 3150 | 3190 | 1590 | 1390 | turned yellow from white | 82.5 | 99.2 | neither degraded impurity nor content change was found
CCOC(=O)C1=C(COCCN)NC(C)=C(C(=O)OC)C1c1ccccc1Cl.Cc1ccc(S(=O)(=O)O)cc1 (stereo not drawn) [Tosylate, Amlodipine Para-toluenesulfonate] | – | – | – | – | – | – | – | – | – | – | 72.0 | 99.2 | –
